{"source": "patent US20140148355A1", "about": "“COMPOSITIONS AND METHODS FOR ANALYSIS OF H3K4 METHYLATED CHROMATIN” (UNIVERSITY OF OSLO, priority 2011, published 2014)", "test_system": "H3K4 methylated chromatin", "experiment": "Chromatin pulldown (ChPD) with western blot detection", "format": "binding", "conditions": "antibodies against each of the three H3K4 methylation states; Arabidopsis seedling chromatin", "from_the_text": "FIG. 8 Chromatin pulldown (ChPD) using the ASHH2 CW. […] Modified histones were visualised by western blot using antibodies as indicated. Molecular size markers are shown to the right. (B) qPCR with primers for assumed ASHH2 target genes on DNA isolated from seedling chromatin pulled down with GST-CWASHH2. ChPD with GST alone was used as a negative control. Data are shown as percent of input. The Ta3 retrotransposon was used as reference. Standard deviations are shown. (C) ChIP using antibodies against H3K4me1, H3K4me3 and H3K36me3 and primers for the same genes as in (B). Data are shown relative to Ta3. (D) ChPD from wt and ashh2 mutant seedlings as in (A) using antibodies as indicated. ChPD with GST alone was used as a negative control and histone H3 as reference.\nChromatin pull-down (ChPD) was performed using crude chromatin in ChIP dilution buffer (1.1% Triton X-100, 1.2 mM EDTA, 16.7 mM Tris-HCL pH 8, 167 mM NaCl) prepared as for ChIP (Gendrel et al., 2005) incubated with 8 μg GST-CW fusion protein and control proteins (only GST alone, or together with GST-CW-W874A and GST-WIYLD) over night. For western blotting, the pulled down chromatin was washed three times in ChIP dilution buffer, run on a 15% SDS-PAGE and blotted onto a PVDF membrane. […]"}
{"substance": "WIYLD domain of SUVR4: WIYLD domain of the Arabidopsis SET-domain protein SUVR4, GST fusion, negative control [reference compound]", "values": [{"measurement": "pull down of H3K4 methylated chromatin (western blot signal)", "value": "did not pull down"}]}
